Data set [1] has as its system human respiratory tract. Briefly: Metabospace: real-time APCI-MS analysis of exhaled breath after inhalation of saturated headspace of test compound. In kind it is in vivo. The following applies: for decrease of mass chromatogram signal intensity as a function of inhalation/exhalation cycles (release in exhaled breath): after nasal inhalation of the substrate, about 30 inhalation/exhalation cycles. How it is done:
The “Metabospace” technology allows real-time detection and analysis of in vivo generated metabolites (exhaled volatiles) starting from compounds of interest. First, a test subject inhales the saturated headspace of a volatile compound. The saturated headspace may be provided as described in the examples herein-below. The breath is exhaled directly into a glass funnel, which works as interface to an analysis device where mass spectra are recorded by a quadrupole mass spectrometer equipped with an atmospheric pressure chemical ionization (APCI) ion source with a modified interface which allows the measurement of fast dynamic changes of volatiles as described in Grab, W., and Gfeller, H. In: ACS Symposium Series 763—Flavor Release (Roberts, D. D., and Taylor, A. J., Eds.) American Chemical Society, Washington, D.C. (2002). The procedure may be performed for example as described further in the examples herein below.
Mass spectrum scans detect the entire range of pseudomolecular ions as well as ions of fragments of molecules. If candidate metabolites are already known, e.g. from in vitro data, the mass chromatogram corresponding to the pseudomolecular ion can be directly visualized together with the chromatogram for the substrate. Acetone is always present in human breath and can be used to show the respiration pattern. Mass spectrum scans of volatiles either exhaled from the nasal or the oral cavity are recorded in narrow time spans, for example twice per second, to follow changes in breath composition as a function of time and respiration cycles. Usually, a series of scans are done to detect other ions that may be linked to the substrate and/or metabolites, which can e.g. be derived from fragments of the substrate and/or the metabolites, as is well-known to the person skilled in the art. Various mass spectrum scans are performed as is well known in the art. In the present invention, a large number of mass spectrum scans are be recorded by the mass spectrometer (for example 2 scans per second). The total ion chromatogram (TIC) gives the total of signals. Individual signals, e.g. the pseudomolecular ion [M+H]^+ for acetone at m/z 59, may be singled out and analysed over time in so-called “mass chromatograms”. Metabolites appear as additional signals in scans, and specific signals are followed over time in respective mass chromatograms. During the first inhalation/exhalation cycles, scans are analysed for ions which are present in exhalations following the inhalation of surrounding air (blank, background) and are not derived from the test compound or from metabolites. It is well known in the art how to identify unknown signals. Depending on the chemistry of the test compound and the possible metabolic reactions which can take place, particular ions are expected to occur if such metabolism takes place. To narrow down the possibilities, a hypothesis based on the test compound (enzyme substrate) and potential biotransformation reactions resulting in metabolites is used. For example, metabolites that result from reactions of the test compound with oxidizing enzymes belonging to the group of CYP enzymes may undergo metabolism including hydroxylation or epoxidation reactions, and specific signals for such metabolites may be generally found at the m/z number of the substrate plus 16. […]

Data set [2] relates to human respiratory tract. Briefly: Metabo-GM: exhaled breath trapped on Tenax TA resin, thermodesorption, GC-MS. In kind it is in vivo.
Data set [3] concerns the target T1, nasal metabolic enzyme CYP2A13 (Homo sapiens, UniProt Q16696).
T1 construct: from tissue; host or cells: nasal cavity / respiratory tract of a living test subject
T1 sequence (Q16696 1-494): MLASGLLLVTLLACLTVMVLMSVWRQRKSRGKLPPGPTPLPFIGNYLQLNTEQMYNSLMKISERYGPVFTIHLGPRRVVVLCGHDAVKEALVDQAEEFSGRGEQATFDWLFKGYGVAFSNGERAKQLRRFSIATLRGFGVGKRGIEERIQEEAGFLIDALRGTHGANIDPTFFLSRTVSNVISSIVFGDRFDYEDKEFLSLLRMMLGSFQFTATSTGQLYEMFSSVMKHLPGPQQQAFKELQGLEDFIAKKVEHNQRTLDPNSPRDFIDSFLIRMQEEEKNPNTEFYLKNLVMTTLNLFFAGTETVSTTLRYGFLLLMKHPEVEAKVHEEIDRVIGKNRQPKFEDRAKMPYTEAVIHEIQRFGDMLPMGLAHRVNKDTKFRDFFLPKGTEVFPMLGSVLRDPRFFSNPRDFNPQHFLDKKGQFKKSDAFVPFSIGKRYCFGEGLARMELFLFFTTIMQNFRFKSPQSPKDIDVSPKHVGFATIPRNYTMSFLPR
Briefly: Metabospace with volatile suppressor inhaled immediately prior to test compound. In kind it is in vivo. Conditions: suppressor (inhibitor of CYP2A13) inhaled immediately prior to test compound; compared with runs without suppressor. How it is done:
A volatile suppressor compound (inhibitor of nasal metabolic enzyme CYP2A13) is inhaled immediately prior to the inhalation of the test compound 2-methoxyacetophenone.
The test subject performs three runs in a row: (1) test compound only; (2) suppressor followed by test compound; (3) test compound only. Before and between runs, blank controls are recorded (inhalation of room air and recording of 30 inhalation/exhalation cycles).
The procedure is performed as described in example 6A, however, as a test compound ketanone is used and ketanone and its metabolite 4-(4-hydroxyphenyl)butan-2-one (raspberry ketone) are detected as described in example 5.

The subject of data set [4] is olfactory perception. The following applies: cited from earlier work; for olfactory threshold / odour intensity: raspberry aroma, Winter (1961) Helv. Chim. Acta 44:2110.
For data set [5], the system named is carboxyl esterase. The experiment in a line: Metabo-GM with inhibitor of carboxyl esterase as suppressor inhaled before test compound. In kind it is in vivo, human. Conditions: for proportion of detected metabolite with suppressor compared to analysis without suppressor: carboxyl esterase inhibitor inhaled first, then test compound; for metabolite detected in exhaled breath by GC-MS: without suppressor. As for the experimental part:
The procedure is performed as described in examples 7 and 10 subject to the following modifications:
As suppressor, an inhibitor for carboxyl esterase is used. As test compound, phenethylacetate is used, which is a substrate for carboxyl esterase.
The procedure is performed as described in example 12A with an inhibitor for carboxyl esterase as suppressor, subject to the following modifications:
As test compound, styrallylacetate is used, which is a substrate for carboxyl esterase.

In data set [6] the test system is carboxyl esterases. The experiment in a line: Cascade Olfactometer: perceived odour intensity and olfactory threshold of odorant with modulator (inhibitor of carboxyl esterases). In kind it is in vivo, human. How it is done:
A modulator is identified using an Olfactometer. As reference test compounds, odorant esters are used. A second test compound (potential modulator, modulator test compound) is tested in combination with these odorant test compounds. The odorant reference test compound is kept at a constant concentration with the modulator concentration being varied.
If metabolism is taking place, the amount of styrallylacetate which is stimulating the olfactory system is decreased.
A standard concentration (appropriate dilution of saturated headspace) of the odorant test compound is provided in one Olfactometer (cascade 1) as the reference, while in the second olfactometer (cascade 2) the odorant test compound is provided at the standard concentration supplemented with various concentrations of the modulator (appropriate dilutions of saturated headspace).
First, the threshold for the odorant styrallylacetate is determined for each test subject. The standard concentration is chosen so that it is perceived to be of week to moderate intensity as judged by each test subject.
The concentrations of the modulator test compound are chosen to be below the olfactory threshold of the test subject.
A sample is provided as headspace in a saturation chamber. The flow from said chamber is added to a carrier gas supply and mixed in a chamber which is connected with the sniffing port where a test subject detects the stimulus. Said flow (the headspace of the sample before addition to the carrier) is determined and adjusted so that the test subject rates said flow as medium intensity. This is the reference that is used in cascade 1. For styrallylacetate, a flow of 20 ml/min of the odorant is used. […]
The effect of the modulator on the olfactory threshold of styrallylacetate is determined in as follows. […]
Alternatively, a dose response curve is recorded using one olfactometer (Cascade 2) by providing samples above and below the detected olfactory threshold of the test subjects. This is compared to the known threshold of the compound which is recorded beforehand. […]

Where [7] appears, read: inhalation and exhalation both through the mouth.

In the case of `O=C(CO)c1ccccc1` [2-hydroxyacetophenone], the “decrease of mass chromatogram signal intensity as a function of inhalation/exhalation cycles (release in exhaled breath)” value in data set [1] was “still near maximal intensity after 30 inhalation/exhalation recordings”.

For `COCC(=O)c1ccccc1` [2-methoxyacetophenone], the “amount of metabolite detected in exhaled breath by GC-MS” value in data set [2] (setting [7]) is reported as “only in a small amount barely detectable”; in data set [2] (inhalation through the mouth, exhalation through the nose), “significantly more metabolite is detected”. In data set [3], the “metabolite signal in exhaled breath in presence of suppressor” value is “considerably less metabolite is formed in presence of the suppressor”. Also, the “decrease of mass chromatogram signal intensity as a function of inhalation/exhalation cycles (release in exhaled breath)” value in data set [1] was “decreases relatively quickly, within about 30 inhalation/exhalation cycles”. In addition, the “metabolite signal in exhaled breath” value in data set [1] (first variant: inhalation and exhalation both through the mouth) is on record as “no signal corresponding to the metabolite is detected”.

For `CC(=O)CCc1ccc(O)cc1` [4-(4-hydroxyphenyl)butan-2-one], the “olfactory threshold / odour intensity” value in data set [4] is on record as “very low olfactory threshold”.

In the case of `COc1ccc(CCC(C)=O)cc1` [ketanone], the “metabolite signal in exhaled breath in presence of suppressor” value in data set [3] is “significantly decreased signal intensity for the metabolite”. The “olfactory threshold / odour intensity” value in data set [4] is listed as “significantly less intense”. Further, the “decrease of mass chromatogram signal intensity as a function of inhalation/exhalation cycles (release in exhaled breath)” value in data set [1] is “retarded release of the more hydrophilic metabolite is observed”. Further, the “metabolite detected in exhaled breath (mass chromatogram signal)” value in data set [1] (inhalation and exhalation through the nose, human test subject) is on record as “a compound is detected at m/z 165 which corresponds to 4(4-hydroxyphenyl)butan-2-one (raspberry ketone)”.

For `CC(=O)OCCc1ccccc1` [phenethylacetate], in data set [5], the “proportion of detected metabolite with suppressor compared to analysis without suppressor” value is “about 50%” and the “metabolite detected in exhaled breath by GC-MS” value is listed as “phenethylalcohol is detected”.

Turning to `CC(=O)OC(C)c1ccccc1` (stereo not drawn) [styrallylacetate], the “amount of metabolite detected in exhaled breath by GC-MS” value in data set [2] (setting [7]) was “Less styrallylalcohol (metabolite) is detected”. Also, the “metabolite detected in exhaled breath by GC-MS” value in data set [2] (inhalation and exhalation through the nose) was “Significant amounts of styrallylalcohol and acetic acid (metabolites) are detected”; in data set [5], “styrallylalcohol is detected”. In data set [6] (dose response curve, one olfactometer, modulator constant), the “olfactory threshold combined with modulator versus odorant alone” value was “lower than the determined olfactory threshold for styrallylacetate alone”. The “perceived intensity of the odorant in presence of the potential modulator” value in data set [6] (odorant flow 20 ml/min constant, modulator flow varied 1 to 900 ml/min, below its olfactory threshold, versus reference without modulator) is “intensity of the odorant is increased”. Besides, the “odour intensity in presence of modulator versus reference (JND protocol)” value in data set [6] (styrallylacetate 20 ml/min in both cascades, modulator 5 ml/min in cascade 2) is “stronger than the reference concentration”. Besides, in data set [5], the “proportion of detected metabolite with suppressor compared to analysis without suppressor” value is “significantly lower”. Besides, the “olfactory threshold relative to its metabolite” value in data set [4] (compared with styrallylalcohol) is reported as “lower threshold than its metabolite styrallylalcohol”.
